From patent US11407721B2, “CIS-morpholinone and other compounds as MDM2 inhibitors for the treatment of cancer” (AMGEN INC., priority 2013, dated 2022)
Read-outs that look alike come from different tables or passages of the source.

Legend:
[1] = molecular target: interaction between HDM2 and p53 (GST-hMDM2 (1-188) / biotinylated-p53 (1-83)) (Homo sapiens (Human), UniProt Q00987); assay: HTRF2 Assay (improved HTRF assay); assay type: binding
[2] = molecular target: interaction between HDM2 and p53 (GST-hMDM2 / biotinylated-p53) (Homo sapiens (Human), UniProt Q00987); assay: biochemical
[3] = 0.2 nM GST-hMDM2 (1-188), 0.5 nM biotinylated-p53 (1-83), 100 mM KF, read-out: HTRF2 IC50

interaction between HDM2 and p53 (GST-hMDM2 (1-188) / biotinylated-p53 (1-83)), sequence (Q00987 1-188): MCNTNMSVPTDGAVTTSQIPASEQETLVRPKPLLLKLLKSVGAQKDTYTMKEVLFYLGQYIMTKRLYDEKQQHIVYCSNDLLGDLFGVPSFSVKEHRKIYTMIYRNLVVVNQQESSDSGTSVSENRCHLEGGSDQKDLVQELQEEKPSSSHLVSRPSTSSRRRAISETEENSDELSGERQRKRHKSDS
interaction between HDM2 and p53 (GST-hMDM2 / biotinylated-p53), sequence (Q00987 1-188): as above

| SMILES | IC50 [1, 3] [µM] | IC50 [2] [µM] | also measured |
| --- | --- | --- | --- |
| O=C1CO[C@@H](c2ccc(Cl)cc2)[C@@H](c2ccc(Cl)cc2)N1c1ccncc1 [(5R,6S)-5,6-bis(4-chlorophenyl)-4-(4-pyridinyl)-3-morpholinone] | 16.8 | 24.2 | – |
| O=C1CN(Cc2ccccc2)[C@H](c2ccc(Br)cc2)[C@H](c2ccc(Br)cc2)N1 [(5R,6S)-5,6-bis(4-bromophenyl)-4-(phenylmethyl)-2-piperazinone] | – | 84.4 | – |
| CCCC[C@H](C(=O)O)N1C(=O)CO[C@H](c2ccc(Cl)cc2)[C@@H]1c1ccc(Cl)cc1 [(2R)-2-((2R,3S)-2,3-bis(4-chlorophenyl)-5-oxo-4-morpholinyl)hexanoic acid] | – | 33.1 | – |
| C=CC[C@H]1O[C@H](c2ccc(Br)cc2)[C@H](c2ccc(Br)cc2)N(C)C1=O [(2R,5S,6R)-5,6-bis(4-bromophenyl)-4-methyl-2-(2-propen-1-yl)-3-morpholinone] | 25 | 23.7 | – |
| CCC[C@H](C(=O)NCC(N)=O)N1C(=O)[C@H](Cc2ccc(C#N)cc2)O[C@@H](c2ccc(Cl)cc2)[C@H]1c1ccc(Cl)cc1 (racemic) [Example 34, (R)—N-(2-Amino-2-oxoethyl)-2-((2S,3R,6S)-2,3-bis(4-chlorophenyl)-6-(4-cyanobenzyl)-5-oxomorpholino)pentanamide and (S)—N-(2-amino-2-oxoethyl)-2-((2R,3S,6R)-2,3-bis(4-chlorophenyl)-6-(4-cyanobenzyl)-5-oxomorpholino)pentanamide] | – | 0.486 | IC50 ([1]; read-out: HTRF2 IC50): 0.745 µM |
| O=C1CO[C@@H](c2cccc(Cl)c2)[C@@H](c2ccc(Cl)cc2)N1C1CCCC1 [(5R,6S)-6-(3-chlorophenyl)-5-(4-chlorophenyl)-4-cyclopentyl-3-morpholinone] | 10 | 16.6 | – |
| CC[C@H](C(=O)O)N1C(=O)CO[C@H](c2ccc(Cl)cc2)[C@@H]1c1ccc(Cl)cc1 [(2R)-2-((2R,3S)-2,3-bis(4-chlorophenyl)-5-oxo-4-morpholinyl)butanoic acid] | – | 40.2 | – |
| CN1C(=O)/C(=C/c2cccnc2)O[C@H](c2ccc(Cl)cc2)C1c1ccc(Cl)cc1 (mixture of isomers) [Example 39, (5S,6R,Z)-5,6-Bis(4-chlorophenyl)-4-methyl-2-(pyridin-3-ylmethylene)morpholin-3-one and (5R,6S,Z)-5,6-bis(4-chlorophenyl)-4-methyl-2-(pyridin-3-ylmethylene)morpholin-3-one] | 6.64 | 10.4 | – |
| CCC[C@H](C(=O)O)N1C(=O)[C@H](Cc2ccc(C#N)cc2)O[C@@H](c2ccc(Cl)cc2)[C@H]1c1ccc(Cl)cc1 [(2R)-2-((2S,3R,6S)-2,3-bis(4-chlorophenyl)-6-(4-cyanobenzyl)-5-oxo-4-morpholinyl)pentanoic acid] | – | 0.297 | IC50 [1]: 0.393 µM |
| C[C@H]1O[C@@H](c2ccc(Br)cc2)[C@@H](c2ccc(Br)cc2)N(C)C1=O [(2R,5R,6S)-5,6-bis(4-bromophenyl)-2,4-dimethyl-3-morpholinone] | – | 46.8 | – |
| O=CC[C@@H]1O[C@@H](c2cccc(Cl)c2)[C@@H](c2ccc(Cl)cc2)N(CC2CC2)C1=O (racemic) [Example 15, (2-((2S,5R,6S)-6-(3-Chlorophenyl)-5-(4-chlorophenyl)-4-(cyclopropylmethyl)-3-oxomorpholin-2-yl)acetaldehydeacetaldehyde and (2-((2R,5S,6R)-6-(3-chlorophenyl)-5-(4-chlorophenyl)-4-(cyclopropylmethyl)-3-oxomorpholin-2-yl)acetaldehydeacetaldehyde] | – | 3.96 | IC50 ([1]; read-out: HTRF2 IC50): 3.32 µM |
| CCC[C@H](CN)N1C(=O)CO[C@@H](c2ccc(Cl)cc2)[C@H]1c1ccc(Cl)cc1 [(5R,6S)-4-((1R)-1-(aminomethyl)butyl)-5,6-bis(4-chlorophenyl)-3-morpholinone] | 6.09 | 6.88 | – |
| O=C1CO[C@@H](c2ccc(Br)cc2)[C@@H](c2ccc(Br)cc2)N1C1CC1 [(5R,6S)-5,6-bis(4-bromophenyl)-4-cyclopropyl-3-morpholinone] | – | 38.2 | – |
| O=C1CO[C@@H](c2ccc(Cl)cc2)[C@@H](c2ccc(Cl)cc2)N1CC1CC1 [(5R,6S)-5,6-bis(4-chlorophenyl)-4-(cyclopropylmethyl)-3-morpholinone] | – | 41.8 | – |
| CN1C(=O)[C@H](O)O[C@@H](c2ccc(Cl)cc2)[C@H]1c1ccc(Cl)cc1 [(2R,5R,6S)-5,6-bis(4-chlorophenyl)-2-hydroxy-4-methyl-3-morpholinone] | – | 67.5 | – |
| CN1C(=O)[C@@H](CC(N)=O)O[C@H](c2ccc(Cl)cc2)[C@@H]1c1ccc(Cl)cc1 [2-((2R,5S,6R)-5,6-bis(4-chlorophenyl)-4-methyl-3-oxo-2-morpholinyl)acetamide] | – | 43.9 | – |
| C[C@H](C(=O)O)N1C(=O)CO[C@H](c2ccc(Cl)cc2)[C@@H]1c1ccc(Cl)cc1 [(2R)-2-((2R,3S)-2,3-bis(4-chlorophenyl)-5-oxo-4-morpholinyl)propanoic acid] | – | 61.7 | – |
| CCC[C@H](c1nnn[nH]1)N1C(=O)[C@H](Cc2ccc(I)cc2)O[C@@H](c2ccc(Cl)cc2)[C@H]1c1ccc(Cl)cc1 (racemic) [Example 36, (2S,5R,6S)-4-((R)-1-(1H-Tetrazol-5-yl)butyl)-5,6-bis(4-chlorophenyl)-2-(4-iodobenzyl)morpholin-3-one and (2R,5S,6R)-4-((S)-1-(1H-tetrazol-5-yl)butyl)-5,6-bis(4-chlorophenyl)-2-(4-iodobenzyl)morpholin-3-one] | – | 0.514 | – |
| CCN1C(=O)CO[C@H](c2ccc(Br)cc2)[C@@H]1c1ccc(Br)cc1 [(5S,6R)-5,6-bis(4-bromophenyl)-4-ethyl-3-morpholinone] | – | 42.4 | – |
| CCC[C@H](C(=O)O)N1C(=O)[C@H](Cc2ccc(F)cc2S(C)(=O)=O)O[C@@H](c2ccc(Cl)cc2)[C@H]1c1ccc(Cl)cc1 [Example 52, (R)-2-((2S,3R,6S)-2,3-Bis(4-chlorophenyl)-6-(4-fluoro-2-(methylsulfonyl)benzyl)-5-oxomorpholino)pentanoic acid] | 0.279 | – | – |
| CCC[C@H](C(=O)OCC)N1C(=O)[C@H](CCCN2CCOCC2)O[C@@H](c2ccc(Cl)cc2)[C@H]1c1ccc(Cl)cc1 [ethyl (2R)-2-((2S,3R,6S)-2,3-bis(4-chlorophenyl)-6-(3-(4-morpholinyl)propyl)-5-oxo-4-morpholinyl)pentanoate] | 2.79 | – | – |
| CCC[C@H](C(=O)O)N1C(=O)[C@H](CCN2CCOCC2)O[C@@H](c2ccc(Cl)cc2)[C@H]1c1ccc(Cl)cc1 [(2R)-2-((2S,3R,6S)-2,3-bis(4-chlorophenyl)-6-(2-(4-morpholinyl)ethyl)-5-oxo-4-morpholinyl)pentanoic acid] | 1.49 | – | – |
| CCC[C@H](C(=O)O)N1C(=O)[C@H](Cc2cccc(F)c2)O[C@@H](c2ccc(Cl)cc2)[C@H]1c1ccc(Cl)cc1 [Example 48, (R)-2-((2S,3R,6S)-2,3-Bis(4-chlorophenyl)-6-(3-fluorobenzyl)-5-oxomorpholino)pentanoic acid] | 0.42 | – | – |
| CCC[C@H](C(=O)O)N1C(=O)[C@H](CCCn2ccnc2)O[C@@H](c2ccc(Cl)cc2)[C@H]1c1ccc(Cl)cc1 [(2R)-2-((2S,3R,6S)-2,3-bis(4-chlorophenyl)-6-(3-(1H-imidazol-1-yl)propyl)-5-oxo-4-morpholinyl)pentanoic acid] | 0.973 | – | – |
| CN1C(=O)CN(Cc2ccccc2)[C@H](c2ccc(Br)cc2)[C@@H]1c1ccc(Br)cc1 [(5R,6S)-5,6-bis(4-bromophenyl)-1-methyl-4-(phenylmethyl)-2-piperazinone] | – | 72.3 | – |
